# From patent US4927831A, “Spiro-isoquinoline-pyrrolidine tetrones and analogs thereof useful as aldose reductase inhibitors” (American Home Products, priority 1989, dated 1990)
# “And” between values parts separate entries of the source, which are not always exact repeats. Identical values can stand only once. Like-named read-outs stand apart in the source and are kept apart here.
# What was measured:
# [1] = test system: dulcitol accumulation in the sciatic nerve; experiment: % lowering of dulcitol accumulation in sciatic nerve (N) of galactosemic rats; format: in vivo, Sprague-Dawley; design: key: NS: statistically nonsignificant change; conditions: 4 days
# Source text: (§1) The aldose reductase inhibiting property of the compounds of this invention and the utilization of the compounds in preventing, diminishing and alleviating diabetic complications are demonstrable in experiments using galactosemic rats, see Dvornik et al., Science, 182, 1146 (1973). Such experiments are exemplified hereinbelow after the listing of the following general comments pertaining to these experiments:
# (§2) (a) Four or more groups of six male rats, 50-70 g, Sprague-Dawley strain, were used. The first group, the control group, was fed a mixture of laboratory chow (rodent Laboratory Chow, Purina) and glucose at 20% (w/w %) concentration. An untreated galactosemic group was fed a similar diet in which galactose was substituted for glucose. The third group was fed a diet prepared by mixing a given amount of the test compound with the galactose containing diet. The concentration of galactose in the diet of the treated groups was the same as that for the untreated galactosemic group.
# (§3) (b) After four days, the animals were killed by euthanization. Both the lens and sciatic nerve were removed, weighed and stored frozen for polyol determination.
# (§4) (c) The polyol determination was performed by a modification of the procedure of M. Kraml and L. Cosyns, Clin. Biochem., 2,373 (1969). Only two minor reagent changes were made: (a) The rinsing mixture was an aqueous 5% (w/v) trichloroacetic acid solution and (b) the stock solution was prepared by dissolving 25 mg of dulcitol in 100 ml of an aqueous trichloroacetic acid solution. [N.B.: For each experiment the average value found in the tissue from rats fed the glucose diet was subtracted from the individual values found in the corresponding tissue in galactose-fed rats to obtain the amount of polyol accumulated.] The aldose reductase inhibiting effects of the compounds of formula (I) were also tested by employing an in vitro testing procedure similar to that described by S. Hayman and J.H. Kinoshita, J. Biol. Chem., 240,877 (1965). In the present case the procedure of Hayman and Kinoshita was modified in that the final chromatography step was omitted in the preparation of the enzyme from bovine lens.
# (§5) The figures under L and N represent the percentage decrease of dulcitol accumulation in the tissues of the lens and sciatic nerve, respectively, for treated rats as compared to untreated rats.
# aldose reductase = target: T1, aldose reductase (Bos taurus, UniProt P16116); experiment: in vitro aldose reductase inhibition (modified Hayman and Kinoshita; enzyme from bovine lens); format: biochemical; conditions: read-out: % Inhibition IN VITRO; for inhibition at 0.1 µM: 10^-7 M
# T1 construct: preparation of the enzyme from bovine lens; from tissue; host or cells: bovine lens
# Protocol: Only two minor reagent changes were made: (a) The rinsing mixture was an aqueous 5% (w/v) trichloroacetic acid solution and (b) the stock solution was prepared by dissolving 25 mg of dulcitol in 100 ml of an aqueous trichloroacetic acid solution. [N.B.: For each experiment the average value found in the tissue from rats fed the glucose diet was subtracted from the individual values found in the corresponding tissue in galactose-fed rats to obtain the amount of polyol accumulated.] […] In the present case the procedure of Hayman and Kinoshita was modified in that the final chromatography step was omitted in the preparation of the enzyme from bovine lens. […] The figures under L and N represent the percentage decrease of dulcitol accumulation in the tissues of the lens and sciatic nerve, respectively, for treated rats as compared to untreated rats.
# [2] = test system: dulcitol accumulation in the lens; experiment: % lowering of dulcitol accumulation in lens (L) of galactosemic rats; format: in vivo, Sprague-Dawley; design: key: NS: statistically nonsignificant change; conditions: 4 days
# Source text: as §1, §2, §3, §4, §5
inhibition at 1 µM (aldose reductase; 10^-6 M) [%],Compound,inhibition at 0.04 µM (aldose reductase; 4 × 10^-8 M) [%],inhibition at 10 µM (aldose reductase; 10^-5 M) [%],inhibition at 0.1 µM (aldose reductase) [%],"% Lowering Dulcitol Accumulation IN VIVO, N (sciatic nerve) ([1]; 0.5 mg/kg in diet)",inhibition at 1 µM (aldose reductase) [%],inhibition at 10 µM (aldose reductase) [%],"% Lowering Dulcitol Accumulation IN VIVO, L (lens) ([2]; 0.5 mg/kg in diet)",also measured
92,"O=C1CC2(C(=O)N1)C(=O)N(Cc1ccc(Br)cc1F)C(=O)c1ccc(Cl)cc12 (stereo not drawn) [[2-[(4-Bromo-2-fluorophenyl)methyl]-6-chloro]spiro[isoquinoline-4(1H),3'-pyrrolidine]-1,2',3,5'(2H)-tetrone]",8,97,55,,,,,"% Lowering Dulcitol Accumulation IN VIVO, N (sciatic nerve) ([1]; 0.6 mg/kg in diet): 29%; % Lowering Dulcitol Accumulation IN VIVO, L (lens) ([2]; 0.6 mg/kg in diet): 9%"
,"O=C1CC2(C(=O)N1)C(=O)N(Cc1ccc(Br)cc1F)C(=O)c1ccc(F)cc12 (stereo not drawn) [[2-[(4-Bromo-2-fluorophenyl)methyl]-6-fluoro]spiro[isoquinoline-4(1H),3'-pyrrolidine]-1,2',3,5'(2H)-tetrone]",,,,82.9% and 92.1%,96,97,NS,"% Lowering Dulcitol Accumulation IN VIVO, N (sciatic nerve) ([1]; 0.3 mg/kg in diet): 39.7%; % Lowering Dulcitol Accumulation IN VIVO, N (sciatic nerve) ([1]; 0.9 mg/kg in diet): 93.5%; inhibition at 0.04 µM (aldose reductase): 38%; % Lowering Dulcitol Accumulation IN VIVO, L (lens) ([2]; 0.3 mg/kg in diet): NS; % Lowering Dulcitol Accumulation IN VIVO, L (lens) ([2]; 0.9 mg/kg in diet): NS"
,"O=C1CC2(C(=O)N1)C(=O)N(Cc1ccc(Br)cc1F)C(=O)c1cc(F)ccc12 (stereo not drawn) [[2-[(4-Bromo-2-fluorophenyl)methyl]-7-fluoro]spiro[isoquinoline-4(1H),3'-pyrrolidine]-1,2'3,5'(2H)-tetrone]",42,95,92,NS,93,,NS,"% Lowering Dulcitol Accumulation IN VIVO, N (sciatic nerve) ([1]; 1.0 mg/kg in diet): 50.2%; % Lowering Dulcitol Accumulation IN VIVO, L (lens) ([2]; 1.0 mg/kg in diet): NS"
,"COc1ccc2c(c1)C(=O)N(Cc1ccc(Br)cc1F)C(=O)C21CC(=O)NC1=O (stereo not drawn) [[2-[(4-Bromo-2-fluorophenyl)methyl]-7-methoxy]spiro[isoquinoline-4(1H),3'-pyrrolidine]-1,2',3,5'(2H)-tetrone]",72,97,90,,96,,,"% Lowering Dulcitol Accumulation IN VIVO, N (sciatic nerve) ([1]; 25.7 mg/kg in diet): 88.1%; % Lowering Dulcitol Accumulation IN VIVO, L (lens) ([2]; 25.7 mg/kg in diet): 45.3%"
,"O=C1CC2(C(=O)N1)C(=O)N(Cc1ccc(Br)cc1F)C(=O)c1c(F)cccc12 (stereo not drawn) [[2-[(4-Bromo-2-fluorophenyl)methyl]-8-fluoro]spiro[isoquinoline-4(1H),3'-pyrrolidine]-1,2',3,5'(2H)-tetrone]",43,,92,50.6%,94,96,NS,"% Lowering Dulcitol Accumulation IN VIVO, N (sciatic nerve) ([1]; 1.0 mg/kg in diet): 57.6%; % Lowering Dulcitol Accumulation IN VIVO, L (lens) ([2]; 1.0 mg/kg in diet): 16.3%"
97,"COc1cc2c(cc1Br)C1(CC(=O)NC1=O)C(=O)N(Cc1ccc(Br)cc1F)C2=O (stereo not drawn) [[6-Bromo-2-[(4-bromo-2-fluorophenyl)methyl]-7-methoxy]spiro[isoquinoline-4(1H),3'-pyrrolidine]-1,2',3,5'(2H)-tetrone]",70,98,88,55.2%,,,NS,"% Lowering Dulcitol Accumulation IN VIVO, N (sciatic nerve) ([1]; 26.4 mg/kg in diet): 89.5%; % Lowering Dulcitol Accumulation IN VIVO, L (lens) ([2]; 26.4 mg/kg in diet): 48.8%"

Compound,inhibition at 1 µM (aldose reductase; 10^-6 M) [%],inhibition at 0.04 µM (aldose reductase; 4 × 10^-8 M) [%],inhibition at 10 µM (aldose reductase; 10^-5 M) [%],inhibition at 0.1 µM (aldose reductase) [%],"% Lowering Dulcitol Accumulation IN VIVO, N (sciatic nerve) ([1]; 0.5 mg/kg in diet)",inhibition at 1 µM (aldose reductase) [%],inhibition at 10 µM (aldose reductase) [%],"% Lowering Dulcitol Accumulation IN VIVO, L (lens) ([2]; 0.5 mg/kg in diet)",also measured
"O=C1CC2(C(=O)N1)C(=O)N(Cc1ccc(Br)cc1F)C(=O)c1cc(Cl)ccc12 (stereo not drawn) [[2-[(4-Bromo-2-fluorophenyl)methyl]-7-chloro]spiro[isoquinoline-4(1H),3'-pyrrolidine]-1,2',3,5'(2H)-tetrone]",92,25,,42,,,96,,"% Lowering Dulcitol Accumulation IN VIVO, N (sciatic nerve) ([1]; 0.6 mg/kg in diet): 63%; % Lowering Dulcitol Accumulation IN VIVO, L (lens) ([2]; 0.6 mg/kg in diet): NS"
